Assay results: ChEMBL document CHEMBL5380850, “Discovery of the First Raptor (Regulatory-Associated Protein of mTOR) Inhibitor as a New Type of Antiadipogenic Agent” (J Med Chem, 2023)
pEC50, pKd: −log10 of the molar value. Activity calls are given as the source filed them. The calls are words filed in the database; no cut-off is given here.

Columns and labels:
mTORC1 (Mus musculus) [1] = molecular target: mTORC1 (Mus musculus) (UniProt Q9JLN9); assay: Inhibition of mTORC1 formation in siRNA mediated Raptor knockdown mouse 3T3-L1 cells assessed as decrease in phosphorylaed-S6K1 expression level at 10 uM incubated for 24 hrs by Western blot analysis; type: cell-based
[2] = molecular target: Serine/threonine-protein kinase mTOR (Mus musculus) (UniProt Q9JLN9); assay: Inhibition of mTOR signalling in mouse 3T3-L1 cells assessed as downregulation of S6K1 phosphorylation at 0.1 to 10 uM incubated for 24 hrs by Western blot analysis; type: cell-based; settings: dose 0.1-10 µM
[3] = Cytotoxicity against mouse 3T3-L1 cells assessed as reduction in cell viability incubated for 24 hrs by MTT assay; type: toxicity, cell-based
Mus musculus [4] = assay: Anti-obesity activity in high fat diet-induced obese C57BL/6J mouse model assessed as reduction in plasma AST level at 40 mg/kg, ip administered every two days for 46 days; type: functional, organism-based; settings: time 46.0 day
3T3-L1 [5] = assay: Anti-adipogenic activity against mouse 3T3-L1 cells assessed as downregulation of PPARgamma mRNA expression level at 0.1 to 1 uM incubated for 24 hrs by RT-qPCR analysis; type: functional, cell-based; settings: dose 0.1-1 µM
Mus musculus [6] = assay: Anti-obesity activity in high fat diet-induced obese C57BL/6J mouse model assessed as reduction in blood glucose level at 40 mg/kg, ip administered every two days for 5 weeks pretreated with compound and followed by insulin stimulation and measured upto 120 mins by insulin tolerance test; type: functional, organism-based
Mus musculus [7] = assay: Anti-obesity activity in high fat diet-induced obese C57BL/6J mouse assessed as reduction in visceral fat content by measuring perirenal white adipose tissue weight at 40 mg/kg, ip administered every two days for 46 days; type: functional, organism-based; settings: time 46.0 day
3T3-L1 [8] = assay: Anti-adipogenic activity against mouse 3T3-L1 cells assessed as downregulation of C/EBPdelta mRNA expression level at 0.1 to 1 uM incubated for 24 hrs by RT-qPCR analysis; type: functional, cell-based; settings: dose 0.1-1 µM
3T3-L1 [9] = assay: Anti-adipogenic activity against mouse 3T3-L1 cells assessed as downregulation of FAS protein expression level at 0.1 to 1 uM incubated for 6 days by Western blot analysis; type: functional, cell-based; settings: dose 0.1-1 µM, time 6.0 day
mTORC1 (Mus musculus) [10] = molecular target: mTORC1 (Mus musculus) (UniProt Q9JLN9); assay: Inhibition of mTORC1 formation in siRNA mediated Raptor knockdown mouse 3T3-L1 cells assessed as decrease in S6K1 expression level at 10 uM incubated for 24 hrs by Western blot analysis; type: cell-based
3T3-L1 [11] = assay: Anti-adipogenic activity against mouse 3T3-L1 cells assessed as decrease in triglyceride level at 1 uM by Oil Red O staining based spectroscopic analysis; type: functional; design: scale not given: the % may be the effect or the level left
3T3-L1 [12] = assay: Anti-adipogenic activity against mouse 3T3-L1 cells assessed as downregulation of C/EBPbeta mRNA expression level at 0.1 to 1 uM incubated for 24 hrs by RT-qPCR analysis; type: functional, cell-based; settings: dose 0.1-1 µM
[13] = molecular target: Regulatory-associated protein of mTOR (Mus musculus) (UniProt Q8K4Q0); assay: Binding affinity to Raptor in mouse 3T3-L1 cells at 50 uM incubated overnight by pull-down assay
Regulatory-associated protein of mTOR (Mus musculus), sequence (Q8K4Q0 whole entry, looked up): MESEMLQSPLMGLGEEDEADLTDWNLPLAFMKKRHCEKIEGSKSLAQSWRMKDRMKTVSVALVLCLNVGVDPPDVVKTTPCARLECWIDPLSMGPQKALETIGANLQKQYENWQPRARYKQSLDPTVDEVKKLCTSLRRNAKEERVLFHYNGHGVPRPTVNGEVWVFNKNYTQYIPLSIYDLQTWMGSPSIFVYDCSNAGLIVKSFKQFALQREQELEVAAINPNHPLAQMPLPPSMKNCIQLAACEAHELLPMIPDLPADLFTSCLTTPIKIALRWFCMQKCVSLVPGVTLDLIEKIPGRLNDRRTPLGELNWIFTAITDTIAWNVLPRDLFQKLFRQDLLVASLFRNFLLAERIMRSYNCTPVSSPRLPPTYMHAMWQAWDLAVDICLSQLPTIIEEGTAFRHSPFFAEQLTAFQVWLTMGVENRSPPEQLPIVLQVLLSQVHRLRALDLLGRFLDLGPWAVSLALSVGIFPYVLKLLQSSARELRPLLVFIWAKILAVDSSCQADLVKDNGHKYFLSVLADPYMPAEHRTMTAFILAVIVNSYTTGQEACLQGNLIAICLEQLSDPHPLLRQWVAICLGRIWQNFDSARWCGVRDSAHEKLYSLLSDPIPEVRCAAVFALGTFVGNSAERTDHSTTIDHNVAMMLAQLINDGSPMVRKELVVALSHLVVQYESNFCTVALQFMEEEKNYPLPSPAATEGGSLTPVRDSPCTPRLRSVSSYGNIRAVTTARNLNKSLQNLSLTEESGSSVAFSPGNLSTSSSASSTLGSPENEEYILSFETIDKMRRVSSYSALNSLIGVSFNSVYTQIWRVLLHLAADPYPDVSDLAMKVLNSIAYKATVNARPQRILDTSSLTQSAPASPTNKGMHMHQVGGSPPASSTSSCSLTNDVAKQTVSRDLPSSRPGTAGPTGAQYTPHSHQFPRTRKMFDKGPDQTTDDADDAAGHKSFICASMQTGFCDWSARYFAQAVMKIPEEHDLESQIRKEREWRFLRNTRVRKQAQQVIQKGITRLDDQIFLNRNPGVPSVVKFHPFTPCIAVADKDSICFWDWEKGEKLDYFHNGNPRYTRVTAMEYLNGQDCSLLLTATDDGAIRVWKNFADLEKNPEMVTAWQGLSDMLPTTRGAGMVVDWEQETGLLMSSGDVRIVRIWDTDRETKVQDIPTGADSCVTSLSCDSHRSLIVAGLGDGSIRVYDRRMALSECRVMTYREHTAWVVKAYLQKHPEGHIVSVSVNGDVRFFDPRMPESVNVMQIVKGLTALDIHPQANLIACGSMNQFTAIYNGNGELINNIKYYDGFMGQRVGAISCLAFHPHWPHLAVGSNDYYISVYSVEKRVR

Mus musculus [14] = assay: Anti-obesity activity in high fat diet-induced obese C57BL/6J mouse model assessed as change in daily food uptake at 40 mg/kg, ip administered every two days for 46 days; type: functional, organism-based; settings: time 46.0 day
Mus musculus [15] = assay: Anti-obesity activity in high fat diet-induced obese C57BL/6J mouse model assessed as increase in […] expression level in inguen white adipose tissue at 40 mg/kg, ip administered every two days for 46 days by immunohistochemical analysis; type: functional, organism-based; settings: time 46.0 day
Mus musculus [16] = assay: Anti-obesity activity in high fat diet-induced obese C57BL/6J mouse assessed as reduction in visceral fat content by measuring epididymis white adipose tissue weight at 40 mg/kg, ip administered every two days for 46 days; type: functional, organism-based; settings: time 46.0 day
3T3-L1 [17] = assay: Anti-adipogenic activity against mouse 3T3-L1 cells at lipogenesis stage assessed as decrease in triglyceride level at 1 uM and measured on 3 to 6 days by Oil Red O staining based spectroscopic analysis; type: functional, cell-based; settings: time 3-6 day
[18] = molecular target: Regulatory-associated protein of mTOR (Homo sapiens, UniProt Q8N122); assay: Binding affinity to recombinant human Raptor and measured for 200 sec by SPR analysis
Regulatory-associated protein of mTOR, sequence (Q8N122 whole entry): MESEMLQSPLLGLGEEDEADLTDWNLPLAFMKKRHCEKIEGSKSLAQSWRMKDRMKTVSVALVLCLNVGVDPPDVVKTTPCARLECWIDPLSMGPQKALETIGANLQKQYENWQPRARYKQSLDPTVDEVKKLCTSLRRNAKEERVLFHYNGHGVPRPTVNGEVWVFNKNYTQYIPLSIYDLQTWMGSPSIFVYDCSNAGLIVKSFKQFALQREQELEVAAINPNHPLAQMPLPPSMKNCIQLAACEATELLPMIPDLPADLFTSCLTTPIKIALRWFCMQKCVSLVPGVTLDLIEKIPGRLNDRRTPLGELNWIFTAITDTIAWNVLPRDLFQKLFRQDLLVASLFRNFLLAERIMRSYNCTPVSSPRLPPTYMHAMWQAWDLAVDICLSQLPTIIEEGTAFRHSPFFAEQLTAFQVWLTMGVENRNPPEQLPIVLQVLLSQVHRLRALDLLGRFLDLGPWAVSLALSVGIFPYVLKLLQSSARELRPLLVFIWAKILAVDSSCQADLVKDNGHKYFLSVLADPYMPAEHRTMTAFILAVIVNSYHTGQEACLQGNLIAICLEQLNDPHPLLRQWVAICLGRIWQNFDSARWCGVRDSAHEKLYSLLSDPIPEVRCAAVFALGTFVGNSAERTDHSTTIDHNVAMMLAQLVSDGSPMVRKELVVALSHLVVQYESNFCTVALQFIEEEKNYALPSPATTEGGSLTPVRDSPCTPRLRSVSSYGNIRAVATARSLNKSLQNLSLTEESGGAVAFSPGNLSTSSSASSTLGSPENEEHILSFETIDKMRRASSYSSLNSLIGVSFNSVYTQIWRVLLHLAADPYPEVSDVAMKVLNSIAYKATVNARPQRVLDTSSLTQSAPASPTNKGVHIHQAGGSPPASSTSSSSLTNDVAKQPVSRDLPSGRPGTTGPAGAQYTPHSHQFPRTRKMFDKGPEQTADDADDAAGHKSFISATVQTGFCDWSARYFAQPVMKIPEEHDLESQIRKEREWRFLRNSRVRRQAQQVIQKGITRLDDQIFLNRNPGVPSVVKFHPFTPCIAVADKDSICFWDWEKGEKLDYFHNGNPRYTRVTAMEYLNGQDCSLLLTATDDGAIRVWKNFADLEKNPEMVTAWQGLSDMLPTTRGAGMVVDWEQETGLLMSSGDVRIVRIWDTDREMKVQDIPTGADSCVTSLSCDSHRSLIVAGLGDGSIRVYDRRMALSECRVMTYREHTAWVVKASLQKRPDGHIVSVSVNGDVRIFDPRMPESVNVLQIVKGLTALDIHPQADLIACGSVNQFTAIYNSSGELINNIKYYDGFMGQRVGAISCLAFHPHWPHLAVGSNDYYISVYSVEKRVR

[19] = molecular target: Serine/threonine-protein kinase mTOR (Mus musculus) (UniProt Q9JLN9); assay: Inhibition of mTOR signalling in mouse 3T3-L1 cells assessed as upregulation of LC3I expression level at 0.1 to 10 uM incubated for 24 hrs by Western blot analysis; type: cell-based; settings: dose 0.1-10 µM
[20] = molecular target: Serine/threonine-protein kinase mTOR (Mus musculus) (UniProt Q9JLN9); assay: Inhibition of mTOR signalling in mouse 3T3-L1 cells assessed as mTOR phosphorylation at S2481 residue at 0.1 to 10 uM incubated for 24 hrs by Western blot analysis; type: cell-based; settings: dose 0.1-10 µM
3T3-L1 [21] = assay: Anti-adipogenic activity in mouse 3T3-L1 cells assessed as increase in mCherry-LC3B-labeled autophagosomes at 10 uM by Immunofluorescence analysis; type: functional, cell-based
3T3-L1 [22] = assay: Anti-adipogenic activity in SiRNA mediated Raptor knockdown mouse 3T3-L1 cells assessed as PPARgamma expression level at 10 uM by Western blot analysis; type: functional, cell-based
Mus musculus [23] = assay: Anti-obesity activity in high fat diet-induced obese C57BL/6J mouse model assessed as decrease in brown adipocyte size at 40 mg/kg, ip administered every two days for 46 days by Hand E staining based microscopic analysis; type: functional, organism-based; settings: time 46.0 day
Mus musculus [24] = assay: In vivo inhibition of mTOR signalling in high fat diet-induced obese C57BL/6J mouse model assessed as decrease in mTOR phosphorylation at S2481 in liver at 40 mg/kg, ip administered every two days for 46 days by Western blot analysis; type: functional, organism-based; settings: time 46.0 day
mTORC1 (Mus musculus) [25] = molecular target: mTORC1 (Mus musculus) (UniProt Q9JLN9); assay: Inhibition of mTORC1 formation in siRNA mediated Raptor knockdown mouse 3T3-L1 cells assessed as decrease in phosphorylated 4E-BP1 expression level at 10 uM incubated for 24 hrs by Western blot analysis; type: cell-based
3T3-L1 [26] = assay: Anti-adipogenic activity in SiRNA mediated Raptor knockdown mouse 3T3-L1 cells assessed as decrease in triglyceride level at 10 uM by Oil Red O staining based microscopic analysis; type: functional, cell-based
Mus musculus [27] = assay: Anti-obesity activity in high fat diet-induced obese C57BL/6J mouse model assessed as reduction in free fatty acid level at 40 mg/kg, ip administered every two days for 46 days; type: functional, organism-based; settings: time 46.0 day
mTORC1 (Mus musculus) [28] = molecular target: mTORC1 (Mus musculus) (UniProt Q9JLN9); assay: Inhibition of mTORC1 formation in mouse 3T3-L1 cells assessed as mLST8 expression level at 10 uM incubated for 24 hrs by reciprocal co-immunoprecipitation assay; type: cell-based
3T3-L1 [29] = assay: Anti-adipogenic activity against mouse 3T3-L1 cells assessed as decrease in triglyceride level by Oil Red O staining based spectroscopic analysis; type: functional, cell-based
Mus musculus [30] = assay: Anti-obesity activity in high fat diet-induced obese C57BL/6J mouse model assessed as increase in COX4 expression level in brown adipocyte at 40 mg/kg, ip administered every two days for 46 days by immunohistochemical analysis; type: functional, organism-based; settings: time 46.0 day
Mus musculus [31] = assay: Anti-obesity activity in high fat diet-induced obese C57BL/6J mouse model assessed as increase in glucose clearance at 40 mg/kg, ip administered every two days for 3 weeks pretreated with compound and followed by glucose challenge and measured upto 120 mins by IPGTT assay; type: functional, organism-based
mTORC1 (Mus musculus) [32] = molecular target: mTORC1 (Mus musculus) (UniProt Q9JLN9); assay: Inhibition of mTORC1 formation in mouse 3T3-L1 cells assessed as increase in phosphorylated-4E-BP1 expression level at 10 uM incubated for 24 hrs by Western blot analysis; type: cell-based
[33] = molecular target: Serine/threonine-protein kinase mTOR (Mus musculus) (UniProt Q9JLN9); assay: Inhibition of mTOR signalling in mouse 3T3-L1 cells assessed as upregulation of ATG5 expression level at 0.1 to 10 uM incubated for 24 hrs by Western blot analysis; type: cell-based; settings: dose 0.1-10 µM

With `C=C(C)[C@@]12OC3(c4ccccc4)O[C@@H]1[C@@H]1[C@H](O)[C@](Cl)(COC(=O)c4ccccc4)[C@@H](O)[C@]4(O)C(=O)C(C)=C[C@H]4[C@@]1(O3)[C@H](C)[C@H]2OC(C)=O` the inhibition (mTORC1 (Mus musculus) [1]) was “Active”, the inhibition [2] was “Active” and the IC50 at 24 h [3] was > 100 µM. The Activity (Mus musculus [4]) was “Active”, the Activity (3T3-L1 [5]) was “Active” and the Activity (Mus musculus [6]) was “Active”. For the same compound, the Activity (Mus musculus [7]) was “Active”, the Activity (3T3-L1 [8]) was “Active” and the Activity (3T3-L1 [9]) was “Active”. The inhibition (mTORC1 (Mus musculus) [10]) was “Active”, the Activity (3T3-L1 [11]) was >50% and the Activity (3T3-L1 [12]) was “Active”. For the same compound, the Activity [13] was “Active”, the Activity (Mus musculus [14]) was “inactive” and the Activity (Mus musculus [15]) was “Active”. The Activity (Mus musculus [16]) was “Active”, the Activity (3T3-L1 [17]) was “inactive” and the pKd [18] was 4.69. The inhibition [19] was “Active”, the inhibition [20] was “Active” and the Activity (3T3-L1 [21]) was “Active”. The Activity (3T3-L1 [22]) was “Active”, the Activity (Mus musculus [23]) was “Active” and the inhibition (Mus musculus [24]) was “Active”. For the same compound, the inhibition (mTORC1 (Mus musculus) [25]) was “Active”, the Activity (3T3-L1 [26]) was “Active” and the Activity (Mus musculus [27]) was “Active”. The inhibition (mTORC1 (Mus musculus) [28]) was “Active”, the pEC50 (3T3-L1 [29]) was 7.01 and the Activity (Mus musculus [30]) was “Active”. The Activity (Mus musculus [31]) was “Active”, the inhibition (mTORC1 (Mus musculus) [32]) was “Active” and the inhibition [33] was “Active”.
